Values belong to the compound of their own block, whether it stands above or below them.
Key:
Assay in all cases: competitive isoTOP-ABPP
[1] = biological target: T1, ABCE1 ATP-binding cassette sub-family E member 1 (Homo sapiens, UniProt P61221); details: for isoTOP-ABPP ratio (R) at liganded lysine P61221_K191 / isoTOP-ABPP ratio (R) at liganded lysine P61221_K478: sol, 231; for isoTOP-ABPP ratio, lysine P61221_K191 / isoTOP-ABPP ratio, lysine P61221_K478: 50 uM_231_sol_in vitro
T1 construct: isoTOP-ABPP experiments performed in cell lysates (in vitro); endogenous in cells; host or cells: soluble proteome of human cancer cell lines (MDA-MB-231, Ramos, Jurkat)
Description: (§1) In vitro covalent fragment treatment for isoTOP-ABPP. All compounds were made up as solutions in DMSO (100×) and were used at a final concentration of 50 μM for activated esters and 100 μM for guanidinylating agents. For each profiling sample, 0.5 ml of lysate was treated with 5 μl of the 100× compound stock solution or 5 μl of DMSO. Samples were treated with activated esters for
(§2) STP-alkyne labeling and click chemistry. For concentration-dependent reactivity measurements by isoTOP-ABPP, 0.5 ml proteome aliquots were treated at ambient temperature with 1 mM STP-alkyne 1 (5 μl of 100 mM stock in DMSO) and 0.1 mM STP alkyne 1 (5 μl of 10 mM stock in DMSO), respectively. For competitive isoTOP-ABPP, after in vitro fragment treatment (detailed above), the samples were labeled for 1 h at ambient temperature with 0.1 mM STP-alkyne 1 (5 μl of 10 mM stock in DMSO). Samples were conjugated by copper-mediated azide-alkyne cycloaddition (CuAAC) to either the light (1 mM STP-alkyne or fragment treated) or heavy (0.1 mM STP-alkyne or DMSO treated) TEV tags (10 μl of 5 mM stocks in DMSO, final concentration=100 μM) using tris(2-carboxyethyl)phosphine hydrochloride
(§3) R value calculation and processing. The ratios of light and heavy MS1 peaks for each unique peptide were quantified with a CIMAGE software using default parameters (3 MS1 acquisitions per peak and signal to noise threshold set to 2.5). For reactivity measurements by isoTOP-ABPP, the R value was calculated from the ratio of MS1 peak areas, comparing the 1 mM STP alkyne sample (light TEV tag) with the 0.1 mM STP alkyne sample (heavy TEV tag). For competitive isoTOP-ABPP, the R value was calculated from the ratio of MS1 peak areas, comparing the DMSO treated sample (heavy TEV tag) with the compound treated sample (light TEV tag). […] Ratios for unique peptide entries are calculated for each experiment; overlapping peptides with the same modified lysine (for example, different charge states, MudPIT chromatographic steps or tryptic termini) are grouped together and the median ratio is reported as the final ratio (R). The peptide ratios reported by CIMAGE were further filtered to ensure the removal or correction of low-quality ratios in each individual data set. The quality filters applied were the following: removal of half tryptic peptides; for ratios with high standard deviations from the median (90% of the median or above) the lowest ratio was taken instead of the median; removal of peptides with R=20 and only a single MS2 event triggered during the elution of the parent ion; manual annotation of all the peptides with ratios of 20, removing any peptides with low quality elution profiles that remained after the previous curation steps (only done for competitive isoTOP-ABPP).
(§4) Cross-data processing for fragment screening. For compound treated samples, biological replicates of the same condition were averaged, if the standard deviation was below 60% of the mean; otherwise, for lysines with at least one R value <4 for a particular compound, the lowest value of the ratio set was taken. For lysines, where all R values for a particular compound were ≥4, the average was reported. For peptides containing several possible modified lysines, the lysine with the highest number of quantification events was used for analysis and the remaining, redundant peptides were reported as alternative modification sites. Peptides included in the aggregate dataset (those used for further bioinformatics and statistical analyses) were required to have been quantified in 2 experiments for competitive isoTOP-ABPP. Lysines were categorized as liganded, if they had at least one ratio R≥4 (hit fragments). For liganded lysines with R=20 for all liganding events, lysines were required to have been quantified with R=20 in two separate experiments and were further required to have been quantified with R<20 in one additional experiment.

[2] = biological target: T2, MAP1LC3B Microtubule-associated proteins 1A/1B light chain (Homo sapiens, UniProt Q9GZQ8); type: binding; parameters: key to isoTOP-ABPP reactivity ratio at lysine Q9GZQ8_K51: R = MS1 peak area ratio, DMSO (heavy) / compound-treated (light); details: 50 uM, in vitro; for isoTOP-ABPP ratio (R) at liganded lysine Q9GZQ8_K51: sol, 231; for isoTOP-ABPP reactivity ratio at lysine Q9GZQ8_K51: 231 sol
T2 construct: isoTOP-ABPP experiments performed in cell lysates (in vitro); endogenous in cells; host or cells: soluble proteome of human cancer cell lines (MDA-MB-231; Ramos and Jurkat also prepared)
Description: as §1, §2, §3, §4

HK1 Hexokinase-1 = biological target: T3, HK1 Hexokinase-1 (Homo sapiens, UniProt P19367); type: binding; parameters: key to isoTOP-ABPP reactivity ratio at lysine P19367_K510: R = MS1 peak area ratio, DMSO (heavy) / compound-treated (light); details: for isoTOP-ABPP ratio, lysine P19367_K510: 50 uM_231_sol_in vitro; for isoTOP-ABPP ratio (R) at liganded lysine P19367_K510: sol, 231
T3 construct: isoTOP-ABPP experiments performed in cell lysates (in vitro); endogenous in cells; host or cells: soluble proteome of human cancer cell lines (MDA-MB-231; Ramos and Jurkat also prepared)
T3 sequence (P19367 1-917): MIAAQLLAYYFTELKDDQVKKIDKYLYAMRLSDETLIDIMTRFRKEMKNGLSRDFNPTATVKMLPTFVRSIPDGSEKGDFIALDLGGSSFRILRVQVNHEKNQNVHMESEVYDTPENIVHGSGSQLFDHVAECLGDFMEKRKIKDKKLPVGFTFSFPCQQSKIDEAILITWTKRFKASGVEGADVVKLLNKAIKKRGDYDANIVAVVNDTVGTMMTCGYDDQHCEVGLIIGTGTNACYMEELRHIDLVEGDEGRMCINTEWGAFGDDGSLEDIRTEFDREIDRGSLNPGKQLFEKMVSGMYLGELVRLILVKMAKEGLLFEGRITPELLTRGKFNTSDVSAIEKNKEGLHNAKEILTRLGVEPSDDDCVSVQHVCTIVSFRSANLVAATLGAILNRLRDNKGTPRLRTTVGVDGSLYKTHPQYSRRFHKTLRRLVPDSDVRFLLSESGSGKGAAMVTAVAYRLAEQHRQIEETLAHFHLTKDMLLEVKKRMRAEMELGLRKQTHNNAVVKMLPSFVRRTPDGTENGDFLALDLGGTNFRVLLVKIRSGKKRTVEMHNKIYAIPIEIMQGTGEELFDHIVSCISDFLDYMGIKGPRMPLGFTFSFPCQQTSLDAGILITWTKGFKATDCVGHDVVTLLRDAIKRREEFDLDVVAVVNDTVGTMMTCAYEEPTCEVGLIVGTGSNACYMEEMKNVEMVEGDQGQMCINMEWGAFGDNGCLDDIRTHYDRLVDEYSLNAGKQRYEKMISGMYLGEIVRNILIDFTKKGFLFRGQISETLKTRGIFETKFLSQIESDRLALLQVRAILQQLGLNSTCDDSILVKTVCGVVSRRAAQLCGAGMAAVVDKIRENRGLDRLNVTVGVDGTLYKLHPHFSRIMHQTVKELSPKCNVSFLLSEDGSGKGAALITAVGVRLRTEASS
Description: as §1, §2, §3, §4

SMILES: O=C(Oc1ccc([N+](=O)[O-])cc1[N+](=O)[O-])c1ccccc1Nc1cccc(C(F)(F)F)c1 [fragment 40, 2,4-Dinitrophenyl 2-((3-(trifluoromethyl)phenyl)amino)benzoate]
isoTOP-ABPP ratio (R) at liganded lysine P61221_K191 ([1]; 50 uM, in vitro): 0.9
isoTOP-ABPP ratio (R) at liganded lysine P61221_K478 ([1]; 50 uM, in vitro): 1.0
isoTOP-ABPP ratio (R) at liganded lysine Q9GZQ8_K51 [2]: 1.0

SMILES: O=C(ON1C(=O)CCC1=O)c1cc(C(F)(F)F)cc(C(F)(F)F)c1 [fragment 46, 3,5-Bis(trifluoromethyl)benzoic acid NHS ester]
isoTOP-ABPP ratio, lysine P19367_K510 (HK1 Hexokinase-1): 1.0
isoTOP-ABPP ratio, lysine P61221_K191 [1]: 20.0
isoTOP-ABPP ratio, lysine P61221_K478 [1]: 11.4

SMILES: O=C(Oc1ccc([N+](=O)[O-])cc1[N+](=O)[O-])c1ccc(Oc2ccccc2)cc1 [fragment 39, 2,4-Dinitrophenyl 4-phenoxybenzoate]
isoTOP-ABPP ratio (R) at liganded lysine P19367_K510 (HK1 Hexokinase-1; 50 uM, in vitro): 0.9
isoTOP-ABPP ratio (R) at liganded lysine P61221_K191 ([1]; 50 uM, in vitro): 0.8
isoTOP-ABPP ratio (R) at liganded lysine P61221_K478 ([1]; 50 uM, in vitro): 1.0
isoTOP-ABPP ratio (R) at liganded lysine Q9GZQ8_K51 [2]: 0.9

isoTOP-ABPP reactivity ratio at lysine P19367_K510 (HK1 Hexokinase-1; 50 uM, 231 sol, in vitro): 1.2
isoTOP-ABPP reactivity ratio at lysine P61221_K191 ([1]; 50 uM, 231 sol, in vitro): 1.7
isoTOP-ABPP reactivity ratio at lysine P61221_K478 ([1]; 50 uM, 231 sol, in vitro): 1.5
isoTOP-ABPP reactivity ratio at lysine Q9GZQ8_K51 [2]: 0.9
SMILES: O=C(Oc1c(F)c(F)c(F)c(F)c1F)c1ccc2ccccc2n1 [fragment 25, Pentafluorophenyl quinoline-2-carboxylate]

SMILES: O=C(Oc1ccc([N+](=O)[O-])cc1[N+](=O)[O-])C(c1ccccc1)c1ccccc1 [fragment 30, 2,4-Dinitrophenyl 2,2-diphenylacetate]
isoTOP-ABPP reactivity ratio at lysine P19367_K510 (HK1 Hexokinase-1; 50 uM, 231 sol, in vitro): 1.0
isoTOP-ABPP reactivity ratio at lysine P61221_K191 ([1]; 50 uM, 231 sol, in vitro): 1.1
isoTOP-ABPP reactivity ratio at lysine P61221_K478 ([1]; 50 uM, 231 sol, in vitro): 1.1
isoTOP-ABPP reactivity ratio at lysine Q9GZQ8_K51 [2]: 1.2

SMILES: CC(=O)Oc1ccc([N+](=O)[O-])cc1[N+](=O)[O-] [fragment 43, 2,4-Dinitrophenyl acetate]
isoTOP-ABPP ratio (R) at liganded lysine P19367_K510 (HK1 Hexokinase-1; 50 uM, in vitro): 20.0
isoTOP-ABPP ratio (R) at liganded lysine P61221_K191 ([1]; 50 uM, in vitro): 1.3
isoTOP-ABPP ratio (R) at liganded lysine P61221_K478 ([1]; 50 uM, in vitro): 1.4

R value (DMSO/fragment) for probe 1 labeling (HK1 Hexokinase-1; P19367_K510, 50 uM, 231 sol, in vitro): 1.0
R value (DMSO/fragment) for probe 1 labeling ([1]; P61221_K191, 50 uM, 231 sol, in vitro): 1.0
SMILES: O=C(Oc1c(F)c(F)c(F)c(F)c1F)c1cc(C(F)(F)F)cc(C(F)(F)F)c1 [fragment 21, Pentafluorophenyl 3,5-bis(trifluoromethyl)benzoate]

isoTOP-ABPP reactivity ratio at lysine P61221_K478 ([1]; 50 uM, 231 sol, in vitro): 1.4
isoTOP-ABPP reactivity ratio at lysine Q9GZQ8_K51 [2]: 1.1
SMILES: O=C(Oc1c(F)c(F)c(F)c(F)c1F)C1CCN(C(=O)OCc2ccccc2)CC1 [fragment 24, 1-Benzyl 4-(pentafluorophenyl) piperidine-1,4-dicarboxylate]

isoTOP-ABPP ratio, lysine P19367_K510 (HK1 Hexokinase-1): 1.0
isoTOP-ABPP ratio, lysine P61221_K191 [1]: 1.0
isoTOP-ABPP ratio, lysine P61221_K478 [1]: 0.9
SMILES: NC(=O)c1cc(C(F)(F)F)cc(C(F)(F)F)c1 [fragment 51, reference compound]

From patent US20210255193A1, “LYSINE REACTIVE PROBES AND USES THEREOF” (The Scripps Research Institute, priority 2017, published 2021)
